Results as given in PubChem BioAssay (NCI).
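Results reflect a 48-hour exposure of cells in 96-well plates to compound at five concentrations. TGI marks complete inhibition of growth.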

What was measured:
Assay in all cases: NCI-60 cell line screen, 48 h
[1] = test system: HCT-15 colon
[2] = test system: NCI-H23 lung
[3] = test system: MDA-MB-231 breast
[4] = test system: HCC-2998 colon
[5] = test system: HL-60(TB) leukemia
[6] = test system: T-47D breast
[7] = test system: ACHN renal
[8] = test system: UACC-257 melanoma
[9] = test system: UO-31 renal
[10] = test system: TK-10 renal
[11] = test system: MDA-N
[12] = test system: CAKI-1 renal
[13] = test system: EKVX NSCLC
[14] = test system: SF-295 CNS
[15] = test system: SF-268 CNS
[16] = test system: MALME-3M melanoma
[17] = test system: SNB-19 CNS
[18] = test system: SF-539 CNS
[19] = test system: RPMI-8226 leukemia
[20] = test system: OVCAR-3 ovarian
[21] = test system: SN12C renal
[22] = test system: HT29 colon
[23] = test system: RXF 393 renal
[24] = test system: A549 NSCLC
[25] = test system: LOX IMVI melanoma
[26] = test system: HCT-116 colon
[27] = test system: UACC-62 melanoma
[28] = test system: OVCAR-5 ovarian
[29] = test system: K-562 leukemia
[30] = test system: SR leukemia
[31] = test system: OVCAR-4 ovarian
[32] = test system: KM12 colon
[33] = test system: NCI-H460 lung
[34] = test system: SW-620 colon
[35] = test system: IGROV1 ovarian
[36] = test system: CCRF-CEM leukemia
[37] = test system: NCI/ADR-RES ovarian
[38] = test system: SK-MEL-28 melanoma
[39] = test system: SNB-75 CNS
[40] = test system: 786-0 renal
[41] = test system: HS 578T breast
[42] = test system: NCI-H226 lung
[43] = test system: MDA-MB-435
[44] = test system: M14 melanoma
[45] = test system: HOP-92 NSCLC
[46] = test system: U251 CNS
[47] = test system: HOP-62 NSCLC
[48] = test system: OVCAR-8 ovarian
[49] = test system: A498 renal
[50] = test system: MOLT-4 leukemia
[51] = test system: MCF7 breast
[52] = test system: DU-145 prostate
[53] = test system: NCI-H522 lung

COC(=O)c1c(C)cccc1C1CN=NC12Cc1ccc(C)c(C)c1C2=O (stereo not drawn)
TGI [1]: > 100 µM
TGI [2]: > 100 µM
TGI [3]: > 100 µM
TGI [4]: 90.6 µM
TGI [5]: 28.6 µM
TGI [6]: 13.1 µM
TGI [7]: > 100 µM
TGI [8]: > 100 µM
TGI [9]: > 100 µM
TGI [10]: > 100 µM
TGI [11]: > 100 µM
TGI [12]: > 100 µM
TGI [13]: 82.5 µM
TGI [14]: > 100 µM
TGI [15]: > 100 µM
TGI [16]: > 100 µM
TGI [17]: > 100 µM
TGI [18]: > 100 µM
TGI [19]: > 100 µM
TGI [20]: > 100 µM
TGI [21]: > 100 µM
TGI [22]: > 100 µM
TGI [23]: > 100 µM
TGI [24]: > 100 µM
TGI [25]: > 100 µM
TGI [26]: 45.6 µM
TGI [27]: 57.9 µM
TGI [28]: > 100 µM
TGI [29]: > 100 µM
TGI [30]: > 100 µM
TGI [31]: > 100 µM
TGI [32]: > 100 µM
TGI [33]: > 100 µM
TGI [34]: > 100 µM
TGI [35]: > 100 µM
TGI [36]: > 100 µM
TGI [37]: > 100 µM
TGI [38]: > 100 µM
TGI [39]: > 100 µM
TGI [40]: > 100 µM
TGI [41]: > 100 µM
TGI [42]: > 100 µM
TGI [43]: > 100 µM
TGI [44]: 96.2 µM
TGI [45]: > 100 µM
TGI [46]: > 100 µM
TGI [47]: > 100 µM
TGI [48]: > 100 µM
TGI [49]: > 100 µM
TGI [50]: 66.4 µM
TGI [51]: > 100 µM
TGI [52]: > 100 µM
TGI [53]: 75.4 µM
